Measured values taken from PubChem BioAssay AID1963868 (Molecular Pharmacology Branch, DTP, NCI, 2024).

System: KRAS PDC tumor spheroids (HUVEC+MSC), viability
Test: Anticancer human tumor 254851-301-R-J1-PDC patient-derived colon carcinoma cell line growth inhibition [KRAS2]
Conditions: for viability, T/C: stronger effect = lower value; active means viability on the fitted dose curve at most 10% of control; inactive means the rest
Outline: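 KRAS-mutant tumor cells were grown as spheroids with HUVEC endothelial cells and human MSCs as stroma. Targeted agents were tested alone and with KRAS pathway inhibitors. Doses started at or near clinical Cmax, or 10 microM, descending half-log.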

[1] = curve of first compound, second compound 0.1 µM
[2] = curve of first compound, second compound 0.316 µM
[3] = curve of first compound, second compound 1 µM
[4] = curve of first compound, second compound 3.16 µM
[5] = curve of first compound, second compound 10 µM
[6] = second compound 0.1 µM, first compound 0.0001 µM
[7] = second compound 0.1 µM, first compound 0.000316 µM
[8] = second compound 0.1 µM, first compound 0.001 µM
[9] = second compound 0.1 µM, first compound 0.00316 µM
[10] = second compound 0.1 µM, first compound 0.01 µM
[11] = second compound 0.1 µM, first compound 0.0316 µM
[12] = second compound 0.316 µM, first compound 0.0001 µM
[13] = second compound 0.316 µM, first compound 0.000316 µM
[14] = second compound 0.316 µM, first compound 0.001 µM
[15] = second compound 0.316 µM, first compound 0.00316 µM
[16] = second compound 0.316 µM, first compound 0.01 µM
[17] = second compound 0.316 µM, first compound 0.0316 µM
[18] = second compound 1 µM, first compound 0.0001 µM
[19] = second compound 1 µM, first compound 0.000316 µM
[20] = second compound 1 µM, first compound 0.001 µM
[21] = second compound 1 µM, first compound 0.00316 µM
[22] = second compound 1 µM, first compound 0.01 µM
[23] = second compound 1 µM, first compound 0.0316 µM
[24] = second compound 3.16 µM, first compound 0.0001 µM
[25] = second compound 3.16 µM, first compound 0.000316 µM
[26] = second compound 3.16 µM, first compound 0.001 µM
[27] = second compound 3.16 µM, first compound 0.00316 µM
[28] = second compound 3.16 µM, first compound 0.01 µM
[29] = second compound 3.16 µM, first compound 0.0316 µM
[30] = second compound 10 µM, first compound 0.0001 µM
[31] = second compound 10 µM, first compound 0.000316 µM
[32] = second compound 10 µM, first compound 0.001 µM
[33] = second compound 10 µM, first compound 0.00316 µM
[34] = second compound 10 µM, first compound 0.01 µM
[35] = second compound 10 µM, first compound 0.0316 µM
[36] = second compound 0.1 µM, first compound 0.1 µM
[37] = second compound 0.1 µM, first compound 0.316 µM
[38] = second compound 0.1 µM, first compound 1 µM
[39] = second compound 0.316 µM, first compound 0.1 µM
[40] = second compound 0.316 µM, first compound 0.316 µM
[41] = second compound 0.316 µM, first compound 1 µM
[42] = second compound 1 µM, first compound 0.1 µM
[43] = second compound 1 µM, first compound 0.316 µM
[44] = second compound 1 µM, first compound 1 µM
[45] = second compound 3.16 µM, first compound 0.1 µM
[46] = second compound 3.16 µM, first compound 0.316 µM
[47] = second compound 3.16 µM, first compound 1 µM
[48] = second compound 10 µM, first compound 0.1 µM
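Further: spheroids exposed to compounds for seven days before readout.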
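Wherever viability, T/C is given: 100% = DMSO vehicle control luminescence of the spheroids.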

CC(=O)Nc1cccc(-n2c(=O)n(C3CC3)c(=O)c3c(Nc4ccc(I)cc4F)n(C)c(=O)c(C)c32)c1 + CNCc1ccccc1-c1csc(C(C)Nc2nc(C)nc3cc(OC)c(OC)cc23)c1
0.0024 µM: IC50 [3]
0.00518 µM: IC50 [2]
inactive: viability, T/C [6] 101% | viability, T/C [7] 101% | viability, T/C [8] 87.7% | viability, T/C [9] 71% | viability, T/C [10] 11.4% | viability, T/C [12] 82.5% | viability, T/C [13] 99.8% | viability, T/C [14] 87.1% | viability, T/C [15] 78.2% | viability, T/C [16] 12.6% | viability, T/C [18] 94.4% | viability, T/C [19] 94.9% | viability, T/C [20] 88.2% | viability, T/C [21] 37.9% | viability, T/C [24] 72.5% | viability, T/C [25] 74.9% | viability, T/C [26] 34.9%
< 0.0001 µM: IC50 [5]
0.000639 µM: IC50 [4]
active: viability, T/C [11] 2.93% | viability, T/C [17] 2.77% | viability, T/C [22] 5.82% | viability, T/C [23] 2.26% | viability, T/C [27] 0.57% | viability, T/C [28] 0.32% | viability, T/C [29] 0.28% | viability, T/C [30] 0.16% | viability, T/C [31] 0.15% | viability, T/C [32] 0.13% | viability, T/C [33] 0.1% | viability, T/C [34] 0.09% | viability, T/C [35] 0.15%
0.0047 µM: IC50 [1]

Cn1nccc1Nc1nccc(-c2cc3c(s2)C(C)(C)N(CCN2CCOCC2)C3=O)n1 + CNCc1ccccc1-c1csc(C(C)Nc2nc(C)nc3cc(OC)c(OC)cc23)c1
< 0.0316 µM: IC50 [4] | IC50 [5]
2.5 µM: IC50 [2]
active: viability, T/C (second compound 0.1 µM, first compound 10 µM) 3.87% | viability, T/C (second compound 0.316 µM, first compound 10 µM) 4.06% | viability, T/C (second compound 1 µM, first compound 10 µM) 3.35% | viability, T/C (second compound 3.16 µM, first compound 3.16 µM) 0.16% | viability, T/C (second compound 3.16 µM, first compound 10 µM) 0.12% | viability, T/C [35] 0.09% | viability, T/C [48] 0.11% | viability, T/C (second compound 10 µM, first compound 0.316 µM) 0.08% | viability, T/C (second compound 10 µM, first compound 1 µM) 0.06% | viability, T/C (second compound 10 µM, first compound 3.16 µM) 0.06% | viability, T/C (second compound 10 µM, first compound 10 µM) 0.09%
1.61 µM: IC50 [3]
2.08 µM: IC50 [1]
inactive: viability, T/C [11] 106% | viability, T/C [36] 97.4% | viability, T/C [37] 99.6% | viability, T/C [38] 89.8% | viability, T/C (second compound 0.1 µM, first compound 3.16 µM) 27.4% | viability, T/C [17] 90.7% | viability, T/C [39] 94.5% | viability, T/C [40] 86.7% | viability, T/C [41] 81.3% | viability, T/C (second compound 0.316 µM, first compound 3.16 µM) 42% | viability, T/C [23] 95.4% | viability, T/C [42] 106% | viability, T/C [43] 93.3% | viability, T/C [44] 77.4% | viability, T/C (second compound 1 µM, first compound 3.16 µM) 11.2% | viability, T/C [29] 25.9% | viability, T/C [45] 51% | viability, T/C [46] 58% | viability, T/C [47] 24.2%

CN(C)C/C=C/C(=O)Nc1cc2c(Nc3ccc(F)c(Cl)c3)ncnc2cc1O[C@H]1CCOC1 + CNCc1ccccc1-c1csc(C(C)Nc2nc(C)nc3cc(OC)c(OC)cc23)c1
inactive: viability, T/C [7] 99.9% | viability, T/C [8] 105% | viability, T/C [9] 96.4% | viability, T/C [10] 94.7% | viability, T/C [11] 93.1% | viability, T/C [36] 72.8% | viability, T/C [13] 104% | viability, T/C [14] 98.3% | viability, T/C [15] 90.4% | viability, T/C [16] 87.9% | viability, T/C [17] 82.8% | viability, T/C [39] 72.3% | viability, T/C [19] 97.1% | viability, T/C [20] 89.2% | viability, T/C [21] 84.6% | viability, T/C [22] 82% | viability, T/C [23] 75.5% | viability, T/C [42] 79.9% | viability, T/C [25] 84% | viability, T/C [26] 82.1% | viability, T/C [27] 81.8% | viability, T/C [28] 75.1% | viability, T/C [29] 73.8% | viability, T/C [45] 62.2%
< 0.000316 µM: IC50 [5]
active: viability, T/C [31] 0.17% | viability, T/C [32] 0.18% | viability, T/C [33] 0.18% | viability, T/C [34] 0.16% | viability, T/C [35] 0.17% | viability, T/C [48] 0.21%
> 0.1 µM: IC50 [1] | IC50 [2] | IC50 [3] | IC50 [4]

CC(=O)Nc1cccc(-n2c(=O)n(C3CC3)c(=O)c3c(Nc4ccc(I)cc4F)n(C)c(=O)c(C)c32)c1 + C=CC(=O)N1CCN(c2nc(=O)n(-c3c(C)ccnc3C(C)C)c3nc(-c4c(O)cccc4F)c(F)cc23)C(C)C1
active: viability, T/C [11] 3.31% | viability, T/C [17] 3.29% | viability, T/C [23] 3.32% | viability, T/C [29] 3.35% | viability, T/C [35] 3.11%
0.00652 µM: IC50 [3]
0.00627 µM: IC50 [1]
0.00508 µM: IC50 [5]
0.00644 µM: IC50 [4]
inactive: viability, T/C [6] 104% | viability, T/C [7] 105% | viability, T/C [8] 89.5% | viability, T/C [9] 84.4% | viability, T/C [10] 27.2% | viability, T/C [12] 102% | viability, T/C [13] 103% | viability, T/C [14] 87.9% | viability, T/C [15] 77.4% | viability, T/C [16] 13% | viability, T/C [18] 102% | viability, T/C [19] 96.6% | viability, T/C [20] 93.9% | viability, T/C [21] 74.3% | viability, T/C [22] 35.5% | viability, T/C [24] 98.5% | viability, T/C [25] 99.4% | viability, T/C [26] 85.1% | viability, T/C [27] 77% | viability, T/C [28] 34% | viability, T/C [30] 105% | viability, T/C [31] 105% | viability, T/C [32] 96.9% | viability, T/C [33] 75% | viability, T/C [34] 14.6%
0.00514 µM: IC50 [2]

O=C(c1cc(Cc2n[nH]c(=O)c3ccccc23)ccc1F)N1CCN(C(=O)C2CC2)CC1
> 10 µM: IC50 (curve of compound)
inactive: viability, T/C (compound 0.0316 µM) 107% [middle of 5 runs] | viability, T/C (compound 0.1 µM) 108% [middle of 5 runs] | viability, T/C (compound 0.316 µM) 99.5% [middle of 5 runs] | viability, T/C (compound 1 µM) 99.5% [middle of 5 runs] | viability, T/C (compound 3.16 µM) 97.4% [middle of 5 runs] | viability, T/C (compound 10 µM) 99.1% [middle of 5 runs]

CCN1CCN(Cc2ccc(Nc3ncc(F)c(-c4cc(F)c5nc(C)n(C(C)C)c5c4)n3)nc2)CC1 + C=CC(=O)N1CCN(c2nc(OCC3CCCN3C)nc3c2CCN(c2cccc4cccc(C)c24)C3)CC1CC#N
0.0553 µM: IC50 [4]
0.645 µM: IC50 [1]
inactive: viability, T/C (second compound 0.0316 µM, first compound 0.00316 µM) 102% | viability, T/C (second compound 0.0316 µM, first compound 0.01 µM) 97.3% | viability, T/C (second compound 0.0316 µM, first compound 0.0316 µM) 90.8% | viability, T/C (second compound 0.0316 µM, first compound 0.1 µM) 78.1% | viability, T/C (second compound 0.0316 µM, first compound 0.316 µM) 64.4% | viability, T/C (second compound 0.0316 µM, first compound 1 µM) 39.2% | viability, T/C [9] 98.9% | viability, T/C [10] 95.5% | viability, T/C [11] 83.3% | viability, T/C [36] 71.5% | viability, T/C [37] 66.2% | viability, T/C [38] 40.6% | viability, T/C [15] 98% | viability, T/C [16] 87.6% | viability, T/C [17] 94.2% | viability, T/C [39] 77% | viability, T/C [40] 60.5% | viability, T/C [41] 42% | viability, T/C [21] 59.5% | viability, T/C [22] 63.2% | viability, T/C [23] 57.5% | viability, T/C [42] 49.7% | viability, T/C [43] 44.5% | viability, T/C [44] 34.6% | viability, T/C [27] 65.6% | viability, T/C [28] 56.8% | viability, T/C [29] 52.5% | viability, T/C [45] 43.4% | viability, T/C [46] 40.1% | viability, T/C [47] 16%
0.6 µM: IC50 [2]
0.605 µM: IC50 (curve of first compound, second compound 0.0316 µM)
0.131 µM: IC50 [3]

COc1cc2nc(C)nc(NC(C)c3cc(N)cc(C(F)(F)F)c3)c2cc1OC1CCOC1 (stereo unspecified)
inactive: viability, T/C (compound 1 µM) 92.5% [middle of 17 runs]
> 10 µM: IC50 (compound alone, run of 07/12/2021) | IC50 (compound alone, run of 07/19/2021) | IC50 (compound alone, run of 07/26/2021)
